These results are taken from patent US6593357B1, “Pyrazole compositions useful as inhibitors of ERK” (Vertex Pharmaceuticals Incorporated, priority 2000, dated 2003).

The target in one test is ERK2 (Homo sapiens, UniProt P28482). Description: ERK2 inhibition, spectrophotometric coupled-enzyme assay. It counts as biochemical. The note with it: activated ERK2 10 nM, 65 μM ATP, 30° C., pH 7.5; read-out: ERK2 Inhibitory Activity (Ki class).
The target in a further test is T1, Aurora2 (Homo sapiens, UniProt O14965).
T1 sequence (O14965 1-403): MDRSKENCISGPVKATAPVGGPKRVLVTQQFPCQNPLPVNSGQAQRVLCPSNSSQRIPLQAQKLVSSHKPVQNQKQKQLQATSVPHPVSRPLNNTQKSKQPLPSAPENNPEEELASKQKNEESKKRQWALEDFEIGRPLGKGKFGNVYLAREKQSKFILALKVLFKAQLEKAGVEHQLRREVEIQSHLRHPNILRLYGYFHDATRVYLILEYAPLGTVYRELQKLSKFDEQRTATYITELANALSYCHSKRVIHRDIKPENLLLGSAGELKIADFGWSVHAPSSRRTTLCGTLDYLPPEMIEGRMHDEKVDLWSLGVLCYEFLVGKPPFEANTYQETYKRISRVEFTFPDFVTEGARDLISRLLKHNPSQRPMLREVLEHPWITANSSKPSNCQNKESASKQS
As to the kind of experiment: Aurora inhibition, standard coupled enzyme assay. It counts as biochemical. To be noted: 40 μM ATP, 30° C.; read-out: Aurora2 Inhibitory Activity (IC50 class). As to the method:
Compounds were screened in the following manner for their ability to inhibit Aurora using a standard coupled enzyme assay. To an assay stock buffer solution containing 0.1M HEPES 7.5, 10 mM MgCl2, 25 mM NaCl, 2.5 mM phosphoenolpyruvate, 300 μM NADH, 30 μg/mL pyruvate kinase, 10 μg/mL lactate dehydrogenase, 40 μM ATP, and 800 μM peptide (LRRASLG, American Peptide, Sunnyvale, Calif.) was added a 30 μM solution of the compound in DMSO and the resulting mixture incubated at 30° C. for 10 min. The reaction was initiated by the addition of 10 μL of 70 nM Aurora and 1 mM DTT. The rates of reaction were obtained by monitoring absorbance at 340 nm over a 5 minute read time at 30° C. using a BioRad Ultramark plate reader (Hercules, Calif.). The IC50 was determined from the rate data as a function of inhibitor concentration.
The compound numbers correspond to the compound numbers in Table 1.

The subject of the next test is AKT. As to the kind of experiment: AKT inhibition, standard coupled enzyme assay. It counts as biochemical. As to the method:
Compounds were screened for their ability to inhibit AKT using a standard coupled enzyme assay (Fox et al., Protein Sci., (1998) 7, 2249). Assays were carried out in a mixture of 100 mM HEPES 7.5, 10 mM MgCl2, 25 mM NaCl , 1 mM DTT and 1.5% DMSO. Final substrate concentrations in the assay were 170 μM ATP (Sigma Chemicals) and 200 μM peptide (RPRAATF, American Peptide, Sunnyvale, Calif.). Assays were carried out at 30° C. and 45 nM AKT. Final concentrations of the components of the coupled enzyme system were 2.5 mM phosphoenolpyruvate, 300 μM NADH, 30 μg/ML pyruvate kinase and 10 μg/ml lactate dehydrogenase.
An assay stock buffer solution was prepared containing all of the reagents listed above, with the exception of AKT, DTT, and the test compound of interest. 56 μl of the stock solution was placed in a 384 well plate followed by addition of 1 μl of 2 mM DMSO stock containing the test compound (final compound concentration 30 μM). The plate was preincubated for about 10 minutes at 30° C. and the reaction initiated by addition of 10 μl of enzyme (final concentration 45 nM) and 1 mM DTT. Rates of reaction were obtained using a BioRad Ultramark plate reader (Hercules, Calif.) over a 5 minute read time at 30° C.

The subject of test [1] is Colon cancer cells (HT-29 cell line). Description: ERK inhibition cell proliferation assay (3H-thymidine uptake). The note with it: Homo sapiens, 3 days. It counts as cell-based. As to the method:
Compounds were assayed for the inhibition of ERK2 by a cell proliferation assay. In this assay, a complete media was prepared by adding 10% fetal bovine serum and penicillin/streptomycin solution to RPMI 1640 medium (JRH Biosciences). Colon cancer cells (HT-29 cell line) were added to each of 84 wells of a 96 well plate at a seeding density of 10,000 cells/well/150 μL. The cells were allowed to attach to the plate by incubating at 37° C. for 2 hours. A solution of test compound was prepared in complete media by serial dilution to obtain the following concentrations: 20 μM, 6.7 μM, 2.2 μM, 0.74 μM, 0.25 μM, and 0.08 μM. The test compound solution (50 μL) was added to each of 72 cell-containing wells. To the 12 remaining cell-containing wells, only complete media […] was added to form a control group in order to measure maximal proliferation. To the remaining 12 empty wells, complete media was added to form a vehicle control group in order to measure background. The plates were incubated at 37° C. for 3 days. A stock solution of ^3H-thymidine (1 mCi/mL, New England Nuclear, Boston, Mass.) was diluted to 20 μCi/mL in RPMI medium then 20 μL of this solution was added to each well. The plates were further incubated at 37° C. for 8 hours then harvested and analyzed for ^3H-thymidine uptake using a liquid scintillation counter.

Another test deals with KDR (Homo sapiens, UniProt P35968). As to the kind of experiment: KDR inhibition, standard coupled enzyme assay. It counts as biochemical. To be noted: read-out: percent inhibition of KDR. On the procedure:
Compounds were screened for their ability to inhibit KDR using a standard coupled enzyme assay (Fox et al., Protein Sci., (1998) 7, 2249). Assays were carried out in a mixture of 200 mM HEPES 7.5, 10 mM MgCl2, 25 mM NaCl , 1 mM DTT and 1.5% DMSO. Final substrate concentrations in the assay were 300 μM ATP (Sigma Chemicals) and 10 μM poly E4Y (Sigma). Assays were carried out at 37° C. and 30 nM KDR. Final concentrations of the components of the coupled enzyme system were 2.5 mM phosphoenolpyruvate, 200 μM NADH, 30 μg/ML pyruvate kinase and 10 μg/ml lactate dehydrogenase.
An assay stock buffer solution was prepared containing all of the reagents listed above, with the exception of ATP and the test compound of interest. 177 μl of the stock solution was placed in a 96 well plate followed by addition of 3 μl of 2 mM DMSO stock containing the test compound (final compound concentration 30 μM). The plate was preincubated for about 10 minutes at 37° C. and the reaction initiated by addition of 20 μl of ATP (final concentration 300 μM). Rates of reaction were obtained using a Molecular Devices plate reader (Sunnyvale, Calif.) over a 5 minute read time at 37° C.

Some results are limits rather than exact numbers.

ERK2, sequence (P28482 whole entry): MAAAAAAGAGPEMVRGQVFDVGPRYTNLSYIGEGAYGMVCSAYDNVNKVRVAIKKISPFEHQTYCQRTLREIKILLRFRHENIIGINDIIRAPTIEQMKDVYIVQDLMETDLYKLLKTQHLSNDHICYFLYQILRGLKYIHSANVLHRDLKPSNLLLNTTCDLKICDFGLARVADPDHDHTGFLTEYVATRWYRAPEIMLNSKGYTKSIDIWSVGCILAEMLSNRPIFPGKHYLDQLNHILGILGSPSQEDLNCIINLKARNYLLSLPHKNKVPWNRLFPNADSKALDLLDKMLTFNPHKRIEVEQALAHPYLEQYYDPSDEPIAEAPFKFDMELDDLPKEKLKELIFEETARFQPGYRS
KDR, sequence (P35968 20-1356, species assumed): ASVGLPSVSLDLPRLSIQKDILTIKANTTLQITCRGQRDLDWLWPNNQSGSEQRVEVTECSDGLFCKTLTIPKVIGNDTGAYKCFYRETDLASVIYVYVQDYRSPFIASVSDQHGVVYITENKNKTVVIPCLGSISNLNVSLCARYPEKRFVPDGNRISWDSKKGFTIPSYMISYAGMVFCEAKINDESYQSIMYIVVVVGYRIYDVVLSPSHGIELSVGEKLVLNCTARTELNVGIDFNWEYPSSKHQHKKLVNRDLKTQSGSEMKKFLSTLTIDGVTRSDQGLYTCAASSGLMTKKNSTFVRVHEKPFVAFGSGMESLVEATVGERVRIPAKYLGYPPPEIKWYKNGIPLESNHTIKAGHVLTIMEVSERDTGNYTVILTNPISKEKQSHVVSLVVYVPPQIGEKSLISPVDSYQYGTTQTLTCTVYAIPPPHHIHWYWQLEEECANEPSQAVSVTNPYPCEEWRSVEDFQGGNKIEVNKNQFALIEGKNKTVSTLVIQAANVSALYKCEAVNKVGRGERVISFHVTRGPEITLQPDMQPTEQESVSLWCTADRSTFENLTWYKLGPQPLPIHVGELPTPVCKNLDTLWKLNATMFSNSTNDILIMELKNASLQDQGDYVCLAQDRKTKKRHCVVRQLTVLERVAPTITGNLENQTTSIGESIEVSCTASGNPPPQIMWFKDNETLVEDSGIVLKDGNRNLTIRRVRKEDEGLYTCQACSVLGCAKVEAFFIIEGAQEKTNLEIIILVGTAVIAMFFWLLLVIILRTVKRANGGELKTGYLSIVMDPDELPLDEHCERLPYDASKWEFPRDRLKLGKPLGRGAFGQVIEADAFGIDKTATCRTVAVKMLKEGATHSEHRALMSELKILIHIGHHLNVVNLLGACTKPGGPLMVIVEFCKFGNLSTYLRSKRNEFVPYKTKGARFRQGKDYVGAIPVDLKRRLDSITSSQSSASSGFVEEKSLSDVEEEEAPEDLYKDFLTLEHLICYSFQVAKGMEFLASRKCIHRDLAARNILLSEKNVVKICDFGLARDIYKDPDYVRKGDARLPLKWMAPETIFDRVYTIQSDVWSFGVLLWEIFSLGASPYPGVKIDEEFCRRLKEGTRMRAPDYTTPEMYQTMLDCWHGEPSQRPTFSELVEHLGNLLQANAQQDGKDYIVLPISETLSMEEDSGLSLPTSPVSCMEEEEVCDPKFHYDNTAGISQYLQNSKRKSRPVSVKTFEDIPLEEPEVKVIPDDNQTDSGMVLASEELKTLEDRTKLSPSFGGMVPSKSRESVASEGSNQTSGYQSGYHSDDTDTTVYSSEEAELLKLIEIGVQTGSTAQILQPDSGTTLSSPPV

For `O=C(NOCc1ccccc1)c1cc(-c2[nH]ncc2-c2cccc(F)c2)c[nH]1` [II-89], the Ki – broadly, the dissociation constant of the complex between target and ligand, obtained from inhibition or displacement – at ERK2 is < 1000 nM. Besides, the IC50 (commonly the point on the concentration scale where inhibition reaches its midpoint) at Aurora2 was < 5000 nM. Also, the “inhibit AKT” value in the test on AKT is given as “inhibit AKT”.
For the molecule `O=C(NCc1ccncc1)c1cc(-c2n[nH]cc2-c2cc(Cl)cc(Cl)c2)c[nH]1` [II-48], the IC50 in test [1] was < 10000 nM; on Aurora2, < 5000 nM. The inhibitory constant (Ki) on ERK2 was < 1000 nM. The inhibition – broadly, the change of the read-out against control, counted positive when it falls – at 2 µM on KDR was > 40%.
For the molecule `NS(=O)(=O)c1ccc(CNC(=O)c2cc(-c3[nH]ncc3-c3cccc(Br)c3)c[nH]2)cc1` [II-94], the Ki at ERK2 was < 1000 nM. Also, in the test on AKT, the “inhibit AKT” value is recorded as “inhibit AKT”.
For the molecule `O=C(NCc1ccc2c(c1)CCO2)c1cc(-c2[nH]ncc2-c2cccc(Br)c2)c[nH]1` [II-43], the concentration for half-maximal inhibition (IC50) in test [1] was < 10000 nM. In addition, the inhibition constant (Ki) at ERK2 was < 1000 nM. Also, the inhibition at 2 µM on KDR was > 40%.
